Where two headings read alike, the source gives them in different places.
Key:
[1] = tested on: WT (wild-type HIV virus; recombinant NL4-3 virus); test: microbe, parasite or virus in culture; type: cell-based, HIV-1
Outline: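 MT-2 cells infected 4-5 days with NL4-3 carrying Renilla luciferase in place of part of nef (Gag P373S), virus made by 293T transfection, with serial inhibitor dilutions. Antiviral activity read as luciferase activity by a modified dual-luciferase read-out.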

[2] = tested on: HIV-1 NL4-3 gag A364V virus; test: microbe, parasite or virus in culture; type: cell-based
Outline: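 Recombinant NL4-3 reporter virus with Renilla luciferase replacing part of nef, made by transfection of 293T cells. MT-2 cells infected for 4-5 days with serial inhibitor dilutions; antiviral activity quantified by luciferase activity.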

[3] = tested on: HIV-1 92UG029 (clade A virus); test: HIV cell culture assay, 92UG029 Gag/Pr recombinant virus in MT-2 cells; type: cell-based
Protocol: MT-2 cells and 293T cells were obtained from the NIH AIDS Research and Reference Reagent Program. MT-2 cells were propagated in RPMI 1640 media supplemented with 10% heat-inactivated fetal bovine serum, […]. The 293T cells were propagated in DMEM media supplemented with 10% heat-inactivated fetal bovine serum (FBS), 100 units/mL penicillin G and 100 μg/mL streptomycin. The proviral DNA clone of NL4-3 was obtained from the NIH AIDS Research and Reference Reagent Program. A recombinant NL4-3 virus, in which a section of the nef gene from NL4-3 was replaced with the Renilla luciferase gene, was used as a reference virus. In addition, residue Gag P373 was converted to P373S. Briefly, the recombinant virus was prepared by transfection of the altered proviral clone of NL4-3. Transfections were performed in 293T cells using LipofectAMINE PLUS from Invitrogen (Carlsbad, Calif.), according to manufacturer's instruction. The virus was titered in MT-2 cells using luciferase enzyme activity as a marker. Luciferase was quantitated using the Dual Luciferase kit from Promega (Madison, Wis.), with modifications to the manufacturer's protocol. The diluted Passive Lysis solution was pre-mixed with the re-suspended Luciferase Assay Reagent and the re-suspended Stop & Glo Substrate (2:1:1 ratio). Fifty (50) μL of the mixture was added to each aspirated well on assay plates and luciferase activity was measured immediately on a Wallac TriLux (Perkin-Elmer). Antiviral activities of inhibitors toward the recombinant virus were quantified by measuring luciferase activity in cells infected for 4-5 days with NLRluc recombinants in the presence serial dilutions of the inhibitor.
Determination of EC50 for WT, EC50 for A364V, and EC50 for 92UG029 viruses:
HIV-1 92UG029 was obtained from the NIH (Catalog Number: 1650). This is a subtype A Gag and subtype A Env, X4 (SI) virus from Uganda. Reference: WHO Network for HIV Isolation and Characterization. AIDS Res Hum Retroviruses 10:1359, 1994. The Gag/Pr region from 92UG029 was used to replace that in an HIV-1 NL4-3 virus expressing Renilla luciferase gene.
Both recombinant viruses were used as described above in the HIV cell culture assay for the NL4-3 virus.

[4] = Human immunodeficiency virus 1, NL43, MT2, read-out: WT (EC50, uM), Table 1 regular screen, class symbol
[5] = Human immunodeficiency virus 1, NL43, MT2, read-out: A364V (EC50, uM), Table 1 regular screen, class symbol
[6] = Human immunodeficiency virus 1, MT2, read-out: 92UG029A Clade T332S/V362I/V370A (EC50, uM)
[7] = Human immunodeficiency virus 1, NL43, MT2, read-out: WT (EC50, uM), Table 1 regular screen, MT-2 cells, luciferase readout
[8] = Human immunodeficiency virus 1, NL43, MT2, read-out: A364V (EC50, uM), Table 1 regular screen, MT-2 cells, luciferase readout

| Compound | EC50 [1, 4] [µM] | EC50 [2, 5] [µM] | EC50 [3, 6] [µM] | EC50 [1, 7] [µM] | EC50 [2, 8] [µM] | also measured |
| --- | --- | --- | --- | --- | --- | --- |
| C=C(C)[C@@H]1CC[C@]2(NCCC3(O)COC3)CC[C@]3(C)[C@H](CC[C@@H]4[C@@]5(C)CC=C(C6=CC[C@@](CF)(C(=O)O)CC6)C(C)(C)[C@@H]5CC[C@]43C)[C@@H]12 [Example 2-11, (R)-1-(fluoromethyl)-4-((1R,3aS,5aR,5bR,7aR,11aS,11bR,13aR,13bR)-3a-((2-(3-hydroxyoxetan-3-yl)ethyl)amino)-5a,5b, 8,8,11a-pentamethyl-1-(prop-1-en-2-yl)-2,3,3a,4,5,5a,5b,6,7,7a,8,11,11a,11b,12,13,13a,13b-octadecahydro-1H-cyclopenta[a]chrysen-9-yl)cyclohex-3-enecarboxylic acid] | < 0.05 | > 0.05 | 0.0153 | – | – | – |
| C=C(C)[C@@H]1CC[C@]2(NCCN3CCC(S(C)(=O)=O)CC3)CC[C@]3(C)[C@H](CC[C@@H]4[C@@]5(C)CC=C(C6=CC[C@@](CF)(C(=O)O)CC6)C(C)(C)[C@@H]5CC[C@]43C)[C@@H]12 [Example 1b, (R)-1-(fluoromethyl)-4-((1R,3aS,5aR,5bR,7aR,11aS,11bR,13aR,13bR)-5a,5b, 8,8,11a-pentamethyl-3a-((2-(4-(methylsulfonyl)piperidin-1-yl)ethyl)amino)-1-(prop-1-en-2-yl)-2,3,3a,4,5,5a,5b,6,7,7a,8,11,11a,11 b,12,13,13a,13b-octadecahydro-1H-cyclopenta[a]chrysen-9-yl)cyclohex-3-enecarboxylic acid] | – | – | 0.00348 | 0.00193 | 0.176 | – |
| C=C(C)[C@@H]1CC[C@]2(NCC[C@]3(O)CC[C@](C)(O)CC3)CC[C@]3(C)[C@H](CC[C@@H]4[C@@]5(C)CC=C(C6=CC[C@@](CF)(C(=O)O)CC6)C(C)(C)[C@@H]5CC[C@]43C)[C@@H]12 [Example 2-17, (R)-4-((1R,3aS,5aR,5bR,7aR,11aS,11bR,13aR,13bR)-3a-((2-((trans)-1,4-dihydroxy-4-methylcyclohexyl)ethyl)amino)-5a,5b,8,8,11a-pentamethyl-1-(prop-1-en-2-yl)-2,3,3a,4,5,5a,5b,6,7,7a,8,11,11a,11b,12,13,13a,13b-octadecahydro-1H-cyclopenta[a]chrysen-9-yl)-1-(fluoromethyl)cyclohex-3-enecarboxylic acid] | < 0.05 | < 0.05 | 0.00937 | – | – | – |
| C=C(C)[C@@H]1CC[C@]2(NCCN3CCC(S(C)(=O)=O)CC3)CC[C@]3(C)[C@H](CC[C@@H]4[C@@]5(C)CC=C(C6=CCC(CF)(C(=O)O)CC6)C(C)(C)[C@@H]5CC[C@]43C)[C@@H]12 (mixture of isomers) [Example 1, 1-(fluoromethyl)-4-((1R,3aS,5aR,5bR,7aR,11aS,11bR,13aR,13bR)-5a,5b,8,8,11a-pentamethyl-3a-((2-(4-(methylsulfonyl)piperidin-1-yl)ethyl)amino)-1-(prop-1-en-2-yl)-2,3,3a,4,5,5a,5b,6,7,7a,8,11,11a,11b,12,13,13a,13b-octadecahydro-1H-cyclopenta[a]chrysen-9-yl)cyclohex-3-enecarboxylic acid] | – | – | 0.00293 | 0.00175 | 0.123 | – |
| C=C(C)[C@@H]1CC[C@]2(NCCN3CCC(S(C)(=O)=O)CC3)CC[C@]3(C)[C@H](CC[C@@H]4[C@@]5(C)CC=C(C6=CCC(F)(C(=O)O)CC6)C(C)(C)[C@@H]5CC[C@]43C)[C@@H]12 (stereo partly drawn) [Compound A, reference compound] | – | – | – | – | – | EC50 ([1]; Human immunodeficiency virus 1, NL43, MT2, read-out: EC50 WT (μM), Table 2, 3× higher viral input): 0.004 µM; potency vs. WT (in words) ([1]; comparative data): good potency; EC50 ([2]; Human immunodeficiency virus 1, NL43, MT2, read-out: EC50 A364V (μM), Table 2, 3× higher viral input): 1.5 µM; fold less potent than Compound 2 vs A364V ([2]; relative to Compound 2): about 7 fold; EC50 ([3]; Human immunodeficiency virus 1, MT2, read-out: EC50 92UG029 (μM)): 0.61 µM; fold less potent than Compound 2 vs 92UG029 ([3]; relative to Compound 2): > 100 fold |
| C=C(C)[C@@H]1CC[C@]2(NCCN3CCC(S(C)(=O)=O)CC3)CC[C@]3(C)[C@H](CC[C@@H]4[C@@]5(C)CC=C(C6=CC[C@](CF)(C(=O)O)CC6)C(C)(C)[C@@H]5CC[C@]43C)[C@@H]12 [Example 1a, (S)-1-(fluoromethyl)-4-((1R,3aS,5aR,5bR,7aR,11aS,11bR,13aR,13bR)-5a,5b,8,8,11a-pentamethyl-3a-((2-(4-(methylsulfonyl)piperidin-1-yl)ethyl)amino)-1-(prop-1-en-2-yl)-2,3,3a,4,5,5a,5b,6,7,7a,8,11,11a,11b,12,13,13a,13b-octadecahydro-1H-cyclopenta[a]chrysen-9-yl)cyclohex-3-enecarboxylic acid] | – | – | 0.00532 | 0.00225 | 0.109 | – |
| C=C(C)[C@@H]1CC[C@]2(NCC[C@]3(O)CC[C@@H](S(C)(=O)=O)CC3)CC[C@]3(C)[C@H](CC[C@@H]4[C@@]5(C)CC=C(C6=CC[C@@](CF)(C(=O)O)CC6)C(C)(C)[C@@H]5CC[C@]43C)[C@@H]12 [Example 2-20, (R)-1-(fluoromethyl)-4-((1R,3aS,5aR,5bR,7aR,11aS,11bR,13aR,13bR)-3a-((2-((cis)-1-hydroxy-4-(methylsulfonyl)cyclohexyl)ethyl)amino)-5a,5b,8,8,11a-pentamethyl-1-(prop-1-en-2-yl)-2,3,3a,4,5,5a,5b,6,7,7a,8,11,11a,11 b,12,13,13a,13b-octadecahydro-1H-cyclopenta[a]chrysen-9-yl)cyclohex-3-enecarboxylic acid] | < 0.05 | > 0.05 | < 0.05 | – | – | – |

— patent US10245275B2 (ViiV HEALTHCARE UK (NO.4) LIMITED, priority 2014, dated 2019)
